In patent publication US20060111335A1, “Photoactivated anti-viral and anti-cancer agent” (priority 2002, published 2006):

Columns and labels:
[1] = Reversed phase HPLC elution on C8 column as measure of hydrophobicity; assay type: physicochemical; details: 45% acetonitrile in 100 mM ammonium acetate pH 5.4
Protocol: Reversed phase high performance liquid chromatography (RP-HPLC) was carried out on C8 columns. Compounds were tested using 20%, 30% and 45% acetonitrile in 100 mM ammonium acetate at pH 5.4 for elution on a C8 column, with the intention of achieving an elution time of about 15 minutes. It was expected that the more hydrophobic a compound, the higher the acetonitrile content one would need for the eluent.

φX-174 plasmid DNA = assay: Photonicking of φX-174 plasmid DNA, gel electrophoresis; assay type: biochemical; details: Example IX, dark and upon exposure to light
Protocol: Photolysis with φX-174 Plasmid DNA. Metal complex solutions (with or without quenchers) were saturated with oxygen or argon prior to irradiation. The solutions were further degassed after being mixed with the plasmid. The final solution concentrations were: DPPZPHEN ([…]), φX-174 plasmid DNA (205 μM in base pairs), superoxide dismutase (25 μg/mL), 2-propanol (0.5 M), mannitol (6.25 mM), histidine (8 mM).
Experiments were conducted as described in Example X to evaluate the amount photonicking that occurred in the dark and upon exposure to light for 37TMBP, 56TMBP, OCTBP, BISNMe2, TMOBP, TIOBP, TPBP, BISTAP and BISDPPZ.

[2] = Photodestruction (photoaquation) with visible light >500 nm, HPLC analysis; assay type: physicochemical; details: 0.1 mM aqueous, 8 hours under argon
Protocol: Aqueous solutions (3 mL, 0.1 mM) of the Rh complexes were irradiated for 8 hours under argon using a 450 W Hanovia medium pressure mercury lamp filtered through a uranium yellow glass (cut-off<330 nm) and a 1.5 cm 0.5% (w/v) aqueous solution of K2Cr2O7 (0% transmittance≦500 nm). Photodestruction of the metal complexes was followed by HPLC analysis.

[3] = Dark thermal aquation and thermal base hydrolysis; assay type: physicochemical; details: 80° C. with 10% NaOH
From the text: A dissociation/addition mechanism is generally accepted as responsible for the substitution chemistry associated with a hexacoordinated Rh(III) ligand field triplet (Weiland et al., Inorg. Chem., 25:4893 (1986)). The dissociation step is due to the promotion of an electron from the t2g orbital to the eg orbital, which leads to significant weakening of the metal ligand bonds. (Hipps et al., Inorg. Chem., 13:1544 (1974)).

Row | Structure (SMILES) | elution time [1] | photonicking of φX-174 plasmid DNA (φX-174 plasmid DNA) | photodestruction [2] [% loss] | thermal hydrolysis, rank order [3]
1 | [Cl-].[Cl][Rh+]12([Cl])([N]3C=CC=c4c3c3c(c5nccnc45)=CC=C[N]31)[N]1C=CC=c3c1c1c(c4nccnc34)=CC=C[N]12 | 8 to 10 min | – | – | –
2 | CC1=c2ccc3c4c2[N](C=C1)[Rh+]1([Cl])([Cl])([N]4C=CC=3C)[N]2C=CC(C)=c3ccc4c(c32)[N]1C=CC=4C.[Cl-] [37TMBP] | – | Only TPBP, BISTAP, BISDPPZ and BISDPPHEN complexes were found to photonick | 6.1 | OCTBP≅37TMBP>BISPHEN
3 | Cc1c(C)c2c3c4c1=CC=C[N]4[Rh+]1([Cl])([Cl])([N]3C=CC=2)[N]2C=CC=c3c(C)c(C)c4c(c32)[N]1C=CC=4.[Cl-] [56TMBP, cis-dichlorobis(5,6-dimethyl-1,10-phenanthroline) rhodium(III) chloride] | – | Only TPBP, BISTAP, BISDPPZ and BISDPPHEN complexes were found to photonick | – | –
4 | [Cl-].[Cl][Rh+]12([Cl])([N]3C=CC=c4c3c3c(c5nc6ccccc6nc45)=CC=C[N]31)[N]1C=CC=c3c1c1c(c4nc5ccccc5nc34)=CC=C[N]12 [BISDPPZ, cis-dichlorobis{dipyrido(3,2-a: 2′,3′-c)phenazine)rhodium (III) chloride] | around 30 minutes | found to photonick | – | –
5 | CC(C)OC1=c2ccc3c4c2[N](C=C1)[Rh+]1([Cl])([Cl])([N]4C=CC=3OC(C)C)[N]2C=CC(OC(C)C)=c3ccc4c(c32)[N]1C=CC=4OC(C)C.[Cl-] [TIOBP, cis-dichlorobis(3,7-diisopropoxy-1,10 phenanthroline) rhodium(III) chloride] | about 15 minutes | Only TPBP, BISTAP, BISDPPZ and BISDPPHEN complexes were found to photonick | – | –
6 | COC1=c2ccc3c4c2[N](C=C1)[Rh+]1([Cl])([Cl])([N]4C=CC=3OC)[N]2C=CC(OC)=c3ccc4c(c32)[N]1C=CC=4OC.[Cl-] [TMOBP, cis-dichlorobis(4,7-dimethoxy-1,10-phenanthroline) rhodium(III) chloride] | about 15 minutes | Only TPBP, BISTAP, BISDPPZ and BISDPPHEN complexes were found to photonick | – | –
7 | [Cl-].[Cl][Rh+]12([Cl])([N]3C=CC(c4ccccc4)=c4ccc5c(c43)[N]1C=CC=5c1ccccc1)[N]1C=CC(c3ccccc3)=c3ccc4c(c31)[N]2C=CC=4c1ccccc1 [TPBP, cis-dichlorobis(4,7-diphenyl-1,10-phenanthroline) rhodium(III) chloride] | around 30 minutes | found to photonick | – | –
